Test results taken from patent publication US11019816B2, “Composition comprising cinmethylin-containing microparticles and a further herbicide” (BASF Agro B.V., priority 2017, dated 2021).
In brackets after ≈: the same amount, converted by molar mass.

Tests used:
[1] = test system: Triticum aestivum; assay: Field trial, phytotoxicity (damage) on winter wheat; settings: TRZAW (winter wheat, crop damage), post-emergence, 31 DAT
Experimental: (§1) For the post emergence treatment, the plants were first grown up to the 2 leaf stage (BBCH 12). Here, the herbicidal compositions were suspended or emulsified in water as distribution medium and sprayed using finely distributing nozzels.
Cinmethylin was used in the solo application as an emulsion concentrate with an active ingredient concentration of 750 g/l.
The mixture of cinmethylin and picolinafen as an emulsifiable concentrate was prepared from cinmethylin as an emulsifiable concentrate (EC) and picolinafen as a water dispersable granule (WG) having an active ingredient concentration of 500 g/l and 50 g/l, respectively.
(§2) The herbicidal activity for the individual herbicidal compositions (solo and mixture applications) was assessed 31 days after treatment (DAT).
(§3) The evaluation for the damage on winter wheat and undesired weeds caused by the tested compositions was carried out using a scale from 0 to 100%, compared to the untreated control plants. Here, 0 means no damage and 100 means complete destruction of the plants.

[2] = test system: Raphanus raphanistrum; assay: Field trial, post-emergence herbicidal activity; type: in vivo; settings: RAPRA, 31 DAT
Experimental: (§4) Winter wheat was seeded in different soils ranging from sandy loam to clay loam soil containing 2.1-5.5% of organic matter.
as §1, §2, §3

[3] = test system: Capsella bursa-pastoris; assay: Field trial, post-emergence herbicidal activity; type: in vivo; settings: CAPBP, 31 DAT
Experimental: as §4, §1, §2, §3

[4] = test system: Lamium amplexicaule; assay: Field trial, post-emergence herbicidal activity; type: in vivo; settings: LAMAM, 31 DAT
Experimental: as §4, §1, §2, §3

[5] = test system: Alopecurus myosuroides; assay: Field trial, post-emergence herbicidal activity; type: in vivo; settings: ALOMY, 31 DAT
Experimental: as §4, §1, §2, §3

[6] = test system: Matricaria inodora; assay: Field trial, post-emergence herbicidal activity; type: in vivo; settings: MATIN, 31 DAT
Experimental: as §4, §1, §2, §3

[7] = at 20° C.; cited from earlier work

With O=C(Nc1ccc(F)cc1)c1cccc(Oc2cccc(C(F)(F)F)c2)n1 [picolinafen (WG), picolinafen] the herbicidal activity ([1]; use rate 50 g ai/ha) was 0%, the herbicidal activity ([1]; use rate 100 g ai/ha) was 0% and the herbicidal activity ([2]; use rate 50 g ai/ha) was 98%. For the same compound, the herbicidal activity ([3]; use rate 50 g ai/ha) was 96%, the herbicidal activity ([4]; use rate 50 g ai/ha) was 94% and the herbicidal activity ([5]; use rate 50 g ai/ha) was 0%. The herbicidal activity ([6]; use rate 50 g ai/ha) was 69%.

Cc1ccccc1CO[C@@H]1C[C@@]2(C(C)C)CC[C@]1(C)O2 (racemic) [cinmethylin, (±)-2-exo-(2-methylbenzyloxy)-1-methyl-4-isopropyl-7-oxabicyclo[2.2.1]heptane] gave a herbicidal activity ([1]; use rate 500 g ai/ha) of 0%, a herbicidal activity ([1]; use rate 1000 g ai/ha) of 0% and a herbicidal activity ([2]; use rate 500 g ai/ha) of 10%. It also gave a herbicidal activity ([3]; use rate 500 g ai/ha) of 65%, a herbicidal activity ([4]; use rate 500 g ai/ha) of 53% and a herbicidal activity ([5]; use rate 500 g ai/ha) of 100%. The solubility in water [7] was 63 µg/mL (≈ 230 µM) and the herbicidal activity ([6]; use rate 500 g ai/ha) was 62%.
